Source: publication PMC12186257, “Serendipitous and Systematic Chemoproteomic Discovery of MBLAC2, HINT1, and NME1‑4 Inhibitors from Histone Deacetylase-Targeting Pharmacophores” (ACS Chemical Biology, 2025)

How the values were obtained:
[1] = target: recombinant HINT1 (hHint1) (Homo sapiens, UniProt P49773); test: HINT1 enzyme activity assay (TrpA hydrolysis, fluorescence); assay type: biochemical; settings: hHint1 0.002 µM, TrpA 0.5 µM, 25 °C
Description: While the biologically relevant substrates of HINT1 have not been clearly elucidated, the protein has been implicated in opioid receptor signaling, − regulation of the melanoma-associated transcription factor MITF, , and DNA damage repair. These functions position HINT1 as a potential pharmacological target for treating conditions such as opioid resistance or melanoma. The only reported HINT1-targeting pharmacophores are nucleoside-based nonhydrolyzable substrate analogs, such as the carbamate TrpGC (Figure a). , We evaluated the inhibitory potential of KV-24 and KV-30 in enzyme activity assays using recombinant HINT1. […] This discrepancy could be attributed to reduced affinity for the recombinant enzyme due to the absence of post-translational modifications (PTMs), cofactors, or interaction partners that enhance drug binding. Alternatively, it might result from substrate dilution in the lysate, whereas high substrate concentrations in the enzyme activity assay require the inhibitor to compete more effectively.
Mouse brain proteomics – LC-MS/MS. Proteome analysis of brain mouse tissue samples was performed on a micro-flow LC timsTOF HT setup described in detail in REF14. Liquid chromatography in micro-flow mode was performed on a Vanquish Neo UHPLC System (Thermo Fisher Scientific) at a flow rate of 50 µL/min. […] 10 µg of peptide mix was injected and analyzed using a 58 min gradient starting at 1% B up to 45% B (1 h method). […]
Mouse proteomics data analysis. The data files were analyzed with DIA-NN 1.8.1. […] The resulting protein group tables were further analyzed by Perseus 1.6.2.2. […]
CME of transferrin and confocal microscopy analyses.For transferrin uptake experiments HeLa cells were seeded on Matrigel-coated coverslips, and incubated with 0.1 % DMSO, or with 100 µM dynasore, 20 µM KV50, 2 µM KV65, or 2 µM KV79 in media containing 10% FCS at 37°C for 20 h. […] All inhibitor treatments were performed in duplicate, to enable quantification of surface levels of transferrin receptors, and to assess the capability of transferrin receptor endocytosis. […]

[2] = tested on: recombinant NME1–4; test: nucleoside diphosphate kinase activity assay (ATP production from ADP and GTP, Kinase-GLO); assay type: biochemical; settings: in vitro
Description: To evaluate whether KV-50 binding affects NME activity, we performed enzyme activity assays using recombinant NME1–4. The assay measured NME-catalyzed production of ATP from ADP (150 μM) and GTP (150 μM).
Nucleotide diphosphate kinase activity assays. The phosphotransfer activity of the NDPKs (NME1-4) was measured in a reaction mixture containing buffer A (20 mM Tris-HCl pH 8.0, 150 mM NaCl, and 1 mM MgCl2). All the samples were pipetted in replicates on a 384 well plate. One volume of the respective NDPK protein solution (NME1-4) was added from stock proteins (diluted in buffer a to a concentration of 300 pM) to the wells in four replicates. To these wells, one volume of the inhibitors (Six dilutions were prepared, starting with a 30 µM stock solution and then performing three-fold serial dilutions) was added and incubated at room temperature for 30 minutes. Then, one volume of the substrate mixture (300 μM GTP and 30 μM ADP) was added to the protein-inhibitor mixture-containing wells and incubated at room temperature for 30 minutes. Finally, three volumes of the Kinase-GLO reagent (Promega V6711) containing an ATP-dependent firefly luciferase were added to all the wells and five minutes later, the luminescence was measured using a plate reader. Eight different concentrations of ATP (0 - 10 μM) were used as standards for a calibration curve to calculate the amount of ATP produced by the different NDPKs.

[3] = tested on: Toxoplasma gondii; set-up: method as in PMID 33360687, PMID 35483428, PMID 38431113, PMID 29414107; settings: in human host cells; cited from earlier work

Sequence of recombinant HINT1 (hHint1) (P49773 whole entry): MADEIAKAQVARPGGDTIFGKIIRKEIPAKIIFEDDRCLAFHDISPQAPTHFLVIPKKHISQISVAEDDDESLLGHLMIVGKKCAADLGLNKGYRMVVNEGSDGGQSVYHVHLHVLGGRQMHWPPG

Row | SMILES | IC50 [1] [µM] | effect on NME enzyme activity [2] | inhibition of proliferation of protozoans [3]
1 | O=C(NO)c1ccc(-c2nc3ccccc3n3cccc23)cc1 [KV-24] | 12.3 | only modestly reduced NME enzyme activity | potently inhibit the proliferation
2 | O=C(NO)c1ccc(-c2nc3ccccc3c3ccccc23)cc1 [KV-30] | 12.6 | only modestly reduced NME enzyme activity | potently inhibit the proliferation
